Assays:
[1] = design: species or system Male SD (Sprague-Dawley) rats; settings: rat, in vivo, po, 0.036 mmol/kg
Experimental: Male SD (Sprague-Dawley) rats, weighing 180 to 300 g, were provided by Shanghai Xipuer-Beikai Experimental Animal Co., Ltd. The male animals were acclimatized to the environment for more than 3 days, and fasted for 12 hours overnight before the experiment, but were allowed to drink water. […] Before administration, the animals were checked to determine whether their body weights met the experimental requirements. Twelve rats were selected for grouping, two rats in each group. The drug solutions were administered intragastrically to the rats in an amount of 0.036 mmol/kg. The rats were euthanized with carbon dioxide gas and samples were collected, at 0.5 h, 1 h, 3 h, 6 h, 12 h, and 24 h, respectively. […] The supernatant plasma was taken, to which 10% trichloroacetic acid (containing PMPA as an internal standard, at a concentration of 100 ng/mL) was immediately added as a precipitant at a volume 5 times that of the plasma, to obtain plasma sample solutions. […] Two ceramic beads were added to each of the homogenization tubes for homogenization to obtain tissue homogenate samples. 100 μL of each biological sample was taken, placed in a 1.5 mL test tube, and centrifuged for 5 min. 20 μL of the supernatant was taken and mixed uniformly with 180 μL of water and then analyzed by LC-MS/MS. LC-MS/MS-AJ (Triple Quad 5500, AB SCIEX) was used for analysis of the samples. Chromatographic Column: Acquity UPLC HSS T3 (2.1×50 mm, 1.8 μm); Column Temperature: 40° C.; Flow Rate: 0.5 mL/min. Mobile Phase A: 0.1% formic acid in water, Mobile Phase B: Acetonitrile Solution. The mass spectrometry was performed with an electrospray ionization source (Turbo Ionspray) as an ion source, in a positive ion mode, at a capillary voltage of 3.0 kV, at a temperature of 500° C., and at a desolvation gas flow of 1000 L/h. The scanning time, cone voltage, collision energy, and the ion reaction for quantitative analysis were shown in Table 6 below: The concentration of the metabolite from each of the compounds in the liver was plotted as a function of time on a bar chart.

hepatitis B virus (HBV) = settings: read-out: EC50, antiviral activity in vitro; cited from earlier work
[2] = system: lamivudine-resistant virus strains; settings: read-out: EC50, inhibitory activity against lamivudine-resistant virus strains; cited from earlier work
[3] = In-vitro metabolism in human liver microsomes, release of ETVMP (Example 24); assay type: in vitro ADME; settings: result in words
From the text: (§1) Human liver microsomes (HLM) were purchased from IVT (In Vitro Technologies) (Product No. X008070, Batch No. SSP). Rat liver microsomes (RLM) were purchased from BD with a batch number of 16298, and mice liver microsomes (MLM) were purchased from Research Institute for Liver Diseases (Shanghai) Co., Ltd. (RILD), with a batch number of BQNI.
(§2) The test compounds PA3001, PA3002, PA3003, and PA3004 were synthesized by Zhejiang Palo Alto Pharmaceuticals, Inc., and dissolved in methanol (from Sinopharm Chemical Reagent Co., Ltd.) to prepare storage solutions at a concentration of 25 mM.
(§3) The enzymatic reaction was carried out in a 100 mM KH2PO4 buffer solution (pH 7.4), with a test compound at a concentration of 25 μM, human liver microsomes at a concentration of 2 mg/ml, and NADPH at a concentration of 2 mM. The reaction was initiated by NADPH which was added last. After the reaction was carried out for 5 min in a constant-temperature shaking water bath kettle, methanol at a volume of 1.5 times that of the reaction mixture was added immediately to terminate the reaction.
(§4) Each sample was centrifuged at a maximum speed of 13,600 rpm for 20 minutes using an Eppendorf tabletop centrifuge. The supernatant was taken, and was blow-dried by a nitrogen blower and then re-dissolved in mobile phase A (0.1% formic acid (v/v) in water).
(§5) • Analysis Column: Waters, Acquity UPLC HSS T3 Column • Flow Rate: 0.5 ml/min • Column Temperature: 40 degrees Celsius • III. Mass Spectrometry Condition • Ion Source: Electrospray Ionization Source • Ion Mode: Positive Ion Mode • Capillary Voltage: 3.0 kV • Temperature: 500° C. • Desolvation Gas Flow Rate: […] • Scan Time: 0.025 s • Cone Voltage: 40 V • Collision Energy: 18 eV • Q1 (m/z): 358 • Q3 (m/z): 152

[4] = In-vitro metabolism in mice liver microsomes, release of ETVMP (Example 24); assay type: in vitro ADME, mouse; settings: result in words
From the text: as §1, §2, §3, §4, §5

[5] = In-vitro metabolism in rat liver microsomes, release of ETVMP (Example 24); assay type: in vitro ADME; settings: result in words
From the text: as §1, §2, §3, §4, §5

Compound	AUC0-24 h of ETVMP in Liver [1] [nmol·h/g]	AUC0-24 h of ETVMP in Plasma [1] [nmol·h/g]	Efficiency of activation by human liver microsomes into ETVMP compared with comparative compound PA3001 [3]	Activated in vitro into monophosphate metabolite ETVMP by human liver microsomes [3]	Rank of conversion rate among tested compounds, human liver microsomes ([3]; Table 3)	Activated in vitro into monophosphate metabolite ETVMP by mouse liver microsomes [4]	Rank of conversion rate among tested compounds, mouse liver microsomes ([4]; Table 3)	Activated in vitro into monophosphate metabolite ETVMP by rat liver microsomes [5]	Rank of conversion rate among tested compounds, rat liver microsomes ([5]; Table 3)	AUC0-24 h of ETVMP in Brain Tissue [1] [nmol·h/g]	EC50 (hepatitis B virus (HBV)) [nM]	EC50 [2] [nM]
C=C1[C@@H](CO)[C@@H](O)C[C@@H]1n1cnc2c(=O)[nH]c(N)nc21 [ETV, 2-amino-9-[(1S,3S,4S)-4-hydroxy-3-hydroxymethyl-2-methylenecyclopentyl]-1,9-dihydro-6H-purine-6-one, reference compound]	16.6	0.55									4	10 to 59
C=C1[C@H](COP2(=O)OCC[C@H](c3cc(F)cc(Cl)c3)O2)[C@@H](O)C[C@@H]1n1cnc2c(=O)[nH]c(N)nc21 (stereo partly drawn) [PA3002]	8.1	0.03	significantly greater									
C=C1[C@H](COP2(=O)OCC[C@H](c3cc(Cl)ccc3F)O2)[C@@H](O)C[C@@H]1n1cnc2c(=O)[nH]c(N)nc21 (stereo partly drawn) [PA3004]	11.6	0.09	significantly greater	activated	highest rate	activated	highest rate	activated	highest rate			
C=C1[C@H](COP2(=O)OCC[C@H](c3cc(Cl)ccc3Cl)O2)[C@@H](O)C[C@@H]1n1cnc2c(=O)[nH]c(N)nc21 (stereo partly drawn) [PA3017]	9.0	0.08										

The next lines start with results.

AUC0-24 h of ETVMP in Liver [1] [nmol·h/g]	AUC0-24 h of ETVMP in Plasma [1] [nmol·h/g]	Efficiency of activation by human liver microsomes into ETVMP compared with comparative compound PA3001 [3]	Activated in vitro into monophosphate metabolite ETVMP by human liver microsomes [3]	Rank of conversion rate among tested compounds, human liver microsomes ([3]; Table 3)	Activated in vitro into monophosphate metabolite ETVMP by mouse liver microsomes [4]	Rank of conversion rate among tested compounds, mouse liver microsomes ([4]; Table 3)	Activated in vitro into monophosphate metabolite ETVMP by rat liver microsomes [5]	Rank of conversion rate among tested compounds, rat liver microsomes ([5]; Table 3)	AUC0-24 h of ETVMP in Brain Tissue [1] [nmol·h/g]	Compound	EC50 (hepatitis B virus (HBV)) [nM]	EC50 [2] [nM]
16.2	0.17		activated		activated		activated		0.2	C=C1[C@H](COP2(=O)OCC[C@H](c3cccc(Cl)c3)O2)[C@@H](O)C[C@@H]1n1cnc2c(=O)[nH]c(N)nc21 (stereo partly drawn) [PA3001]		
18.9	0.19		activated		activated		activated		1.1	C=C1[C@H](COP2(=O)OCC[C@H](c3ccncc3)O2)[C@@H](O)C[C@@H]1n1cnc2c(=O)[nH]c(N)nc21 (stereo partly drawn) [PA3003]		

Reference: US10913766B2, “Liver specific delivery-based entecavir prodrug, nucleoside cyclic phosphate compound, and application thereof” (ZHEJIANG PALO ALTO PHARMACEUTICALS, INC., priority 2017, dated 2021)
